One may read the pIC50 as the negative decadic logarithm of the IC50, by convention in mol/L. Broadly, the IC50 is the concentration that gives 50% inhibition. In general, inhibition refers to the share of the control response that was lost under treatment.

The values below come from ChEMBL document CHEMBL5143703, “Discovery of novel chloropyramine-cinnamic acid hybrids as potential FAK inhibitors for intervention of metastatic triple-negative breast cancer” (Bioorg Med Chem, 2022).

pIC50: −log10 of the molar value. Calls of active or inactive are those of the source. The calls are words filed in the database; no cut-off is given here.

One data set relates to MDA-MB-157. The experiment in a line: Antiproliferative activity against human MDA-MB-157 cells assessed as inhibition of cell proliferation incubated for 72 hrs by MTT assay. The format is functional, cell-based. As to conditions: MDA-MB-157, 72 h.
Data set [1] can be described thus: Cytotoxicity against human MCF-10A cells assessed as inhibition of cell proliferation incubated for 72 hrs by MTT assay. The format is toxicity, cell-based.
Data set [2] concerns MDA-MB-231. Briefly: Antiproliferative activity against human MDA-MB-231 cells assessed as inhibition of cell proliferation at 10 uM incubated for 72 hrs by MTT assay relative to control. The format is functional. Background: Tetrazolium dyes change colour on reduction, which living cells bring about.
A further data set has as its system MDA-MB-453. The experiment in a line: Antiproliferative activity against human MDA-MB-453 cells assessed as inhibition of cell proliferation incubated for 72 hrs by MTT assay. Type of data set: functional, cell-based. The settings on record: MDA-MB-453, 72 h.
Data set [3] concerns MDA-MB-231. The experiment in a line: Antiproliferative activity against human MDA-MB-231 cells assessed as inhibition of cell proliferation incubated for 72 hrs by MTT assay. Type of data set: functional, cell-based. As to conditions: MDA-MB-231, 72 h.
In data set [4] the test system is MDA-MB-231. Briefly: Induction of apoptosis in human MDA-MB-231 cells assessed as late apoptotic cells at 20 uM incubated for 72 hrs by Annexin V-FITC and PI staining based flow cytometry analysis (reference value: 4.98 %). Type of data set: functional. For orientation: A flow cytometer gives signals particle by particle.
Data set [5] relates to MDA-MB-231. Briefly: Induction of apoptosis in human MDA-MB-231 cells assessed as dead cells at 5 uM incubated for 72 hrs by Annexin V-FITC and PI staining based flow cytometry analysis (reference value: 1.16 %). Type of data set: functional.
Data set [6] deals with MDA-MB-231. The experiment in a line: Inhibition of cell invasion in human MDA-MB-231 cells assessed as reduction in invasive cells incubated for 24 hrs by crystal violet staining based transwell assay. Type of data set: functional. As to conditions: dose 5-20 µM, DDE = dose-dependent effect.
For data set [7], the system named is MDA-MB-231. The experiment in a line: Inhibition of focal adhesion formation in human MDA-MB-231 cells assessed as reduction in focal adhesion at 20 uM incubated for 72 hrs by vinculin antibody based immunofluorescence microscopic analysis. Type of data set: functional, cell-based.
Data set [8] concerns MDA-MB-231. The experiment in a line: Inhibition of cell migration in human MDA-MB-231 cells incubated for 24 hrs by scratch wound healing assay. Type of data set: functional, cell-based. As to conditions: dose 5-20 µM, DDE = dose-dependent effect.
The subject of data set [9] is MDA-MB-231. The experiment in a line: Induction of apoptosis in human MDA-MB-231 cells assessed as viable cells at 20 uM incubated for 72 hrs by Annexin V-FITC and PI staining based flow cytometry analysis (reference value: 92.16 %). The format is functional. As to conditions: read-out: Activity.
Data set [10] deals with MDA-MB-231. Briefly: Induction of apoptosis in human MDA-MB-231 cells assessed as viable cells at 5 uM incubated for 72 hrs by Annexin V-FITC and PI staining based flow cytometry analysis (reference value: 92.16 %). The format is functional. The settings on record: read-out: Activity.
The subject of data set [11] is MDA-MB-231. The experiment in a line: Induction of apoptosis in human MDA-MB-231 cells assessed as viable cells at 10 uM incubated for 72 hrs by Annexin V-FITC and PI staining based flow cytometry analysis (reference value: 92.16 %). As to conditions: read-out: Activity. Type of data set: functional.
For data set [12], the system named is MDA-MB-231. Briefly: Induction of apoptosis in human MDA-MB-231 cells assessed as dead cells at 20 uM incubated for 72 hrs by Annexin V-FITC and PI staining based flow cytometry analysis (reference value: 1.16 %). Type of data set: functional.
The subject of data set [13] is MDA-MB-231. Briefly: Induction of apoptosis in human MDA-MB-231 cells assessed as early apoptotic cells at 20 uM incubated for 72 hrs by Annexin V-FITC and PI staining based flow cytometry analysis (reference value: 1.70 %). The format is functional.
For data set [14], the system named is MDA-MB-231. Briefly: Induction of apoptosis in human MDA-MB-231 cells assessed as dead cells at 10 uM incubated for 72 hrs by Annexin V-FITC and PI staining based flow cytometry analysis (reference value: 1.16 %). The format is functional.
The test system of data set [15] is MDA-MB-231. The experiment in a line: Induction of apoptosis in human MDA-MB-231 cells assessed as late apoptotic cells at 5 uM incubated for 72 hrs by Annexin V-FITC and PI staining based flow cytometry analysis (reference value: 4.98 %). The format is functional.
Data set [16] relates to MDA-MB-231. Briefly: Induction of apoptosis in human MDA-MB-231 cells assessed as early apoptotic cells at 5 uM incubated for 72 hrs by Annexin V-FITC and PI staining based flow cytometry analysis (reference value: 1.70 %). The format is functional.
In data set [17] the test system is MDA-MB-231. Briefly: Inhibition of stress fibers formation in human MDA-MB-231 cells assessed as reduction in stress fibers at 20 uM incubated for 72 hrs by FITC-Phalloidin staining based immunofluorescence microscopic analysis. The format is functional, cell-based.
The target of data set [18] is Focal adhesion kinase 1 (Homo sapiens) (UniProt Q05397). Briefly: Inhibition of FAK autophosphorylation at […] in human MDA-MB-231 cells incubated for 72 hrs by Western blot analysis. Type of data set: cell-based. The settings on record: dose 5-20 µM, DDE = dose-dependent effect. A general note: In western blotting, separated proteins are transferred to a membrane and probed.

The subject of data set [19] is MDA-MB-231. The experiment in a line: Induction of apoptosis in human MDA-MB-231 cells assessed as early apoptotic cells at 10 uM incubated for 72 hrs by Annexin V-FITC and PI staining based flow cytometry analysis (reference value: 1.70 %). Type of data set: functional.
Data set [20] deals with MDA-MB-231. Briefly: Potency index, ratio of chloropyramine IC50 to test compound IC50 for antiproliferative activity against human MDA-MB-231 cells assessed as inhibition of cell proliferation incubated for 72 hrs by MTT assay. Type of data set: functional.
Data set [21] relates to MDA-MB-231. The experiment in a line: Induction of apoptosis in human MDA-MB-231 cells assessed as late apoptotic cells at 10 uM incubated for 72 hrs by Annexin V-FITC and PI staining based flow cytometry analysis (reference value: 4.98 %). Type of data set: functional.
Data set [22] in a line: Potency index, ratio of test compound IC50 to chloropyramine IC50 for cytotoxicity against human MCF-10A cells assessed as inhibition of cell proliferation incubated for 72 hrs by MTT assay. The format is toxicity, cell-based. As to conditions: read-out: Ratio IC50.

Focal adhesion kinase 1 (Homo sapiens), sequence (Q05397 2-1052 limits assumed): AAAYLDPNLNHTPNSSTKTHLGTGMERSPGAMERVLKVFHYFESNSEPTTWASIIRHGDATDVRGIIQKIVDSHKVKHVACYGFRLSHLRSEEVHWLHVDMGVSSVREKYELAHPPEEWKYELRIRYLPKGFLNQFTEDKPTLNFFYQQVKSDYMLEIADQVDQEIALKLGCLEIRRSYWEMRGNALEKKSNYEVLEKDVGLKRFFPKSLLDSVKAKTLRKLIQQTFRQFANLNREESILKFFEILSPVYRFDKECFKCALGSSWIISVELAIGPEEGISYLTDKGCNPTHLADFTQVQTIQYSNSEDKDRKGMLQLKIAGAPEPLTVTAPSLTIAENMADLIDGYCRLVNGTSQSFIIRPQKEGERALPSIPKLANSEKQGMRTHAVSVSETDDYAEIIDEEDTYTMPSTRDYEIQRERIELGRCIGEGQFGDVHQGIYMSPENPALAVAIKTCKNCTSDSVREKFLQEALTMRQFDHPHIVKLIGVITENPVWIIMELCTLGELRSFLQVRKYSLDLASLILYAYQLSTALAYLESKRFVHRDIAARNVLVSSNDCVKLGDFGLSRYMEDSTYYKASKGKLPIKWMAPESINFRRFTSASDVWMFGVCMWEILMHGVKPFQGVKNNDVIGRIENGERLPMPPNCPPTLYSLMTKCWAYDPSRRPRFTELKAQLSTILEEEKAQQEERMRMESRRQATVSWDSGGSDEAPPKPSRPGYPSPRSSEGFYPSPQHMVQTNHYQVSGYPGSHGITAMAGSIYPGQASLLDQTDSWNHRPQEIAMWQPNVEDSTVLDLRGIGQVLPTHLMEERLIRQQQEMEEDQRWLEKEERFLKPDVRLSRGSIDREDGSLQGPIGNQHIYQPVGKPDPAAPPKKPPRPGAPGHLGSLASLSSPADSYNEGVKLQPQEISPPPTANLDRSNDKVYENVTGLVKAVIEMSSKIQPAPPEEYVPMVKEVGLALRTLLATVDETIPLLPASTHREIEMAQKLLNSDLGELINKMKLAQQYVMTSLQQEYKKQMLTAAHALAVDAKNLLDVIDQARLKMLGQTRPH

On to `COc1cc(/C=C/C(=O)N(CCN(C)C)c2ccccn2)ccc1O`, for which the values for the pIC50 in the data set with MDA-MB-157, in the data set on MDA-MB-453 and in the data set with MDA-MB-231 [3] were 4.85, 4.80 and 4.87, respectively. Besides, the IC50 at 72 h in data set [1] was more than 60 µM. Also, the inhibition at 10 µM in the data set with MDA-MB-231 [2] is more than 50%.

Take `CN(C)CCN(C(=O)/C=C/c1c[nH]c2ccccc12)c1ccccn1`: the Activity in the data set with MDA-MB-231 [4] is listed as 39.58%; with MDA-MB-231 [5], 3.88%; with MDA-MB-231 [12], 5.83%; in the data set on MDA-MB-231 [13], 2.01%; with MDA-MB-231 [14] it was 3.98%; in the data set with MDA-MB-231 [15], 10.05%. In addition, the Activity was 3.05% in the data set with MDA-MB-231 [16], 2% in the data set on MDA-MB-231 [19] and 30.24% in the data set with MDA-MB-231 [21]. The figures for the pIC50 with MDA-MB-157, with MDA-MB-453 and in the data set with MDA-MB-231 [3] were 4.92, 5.04 and 5.08, respectively. Moreover, the inhibition result (in the data set on MDA-MB-231 [6]; with MDA-MB-231 [8]; in [18]) was “Dde” throughout. Moreover, the inhibition result in the data set with MDA-MB-231 [7] and in the data set with MDA-MB-231 [17] was “Active” in each case. In addition, in data set [1], the IC50 at 72 h turned out to be 40.6 µM. In addition, the inhibition at 10 µM in the data set on MDA-MB-231 [2] is more than 50%. Also, the viability at 20 µM with MDA-MB-231 [9] turned out to be 52.6%. The viability at 5 µM with MDA-MB-231 [10] was found to be 83%. Besides, in the data set on MDA-MB-231 [11], the viability at 10 µM turned out to be 63.8%. Also, the “Ratio IC50” value in the data set on MDA-MB-231 [20] is on record as 6. The selectivity ratio at 72 h in [22] is 5.

As to `CN(C)CCN(Cc1ccc(Cl)cc1)c1ccccn1` [CHLOROPYRAMINE], the figures for the pIC50 with MDA-MB-157, in the data set with MDA-MB-453 and with MDA-MB-231 [3] were 4.37, less than 4.22 and 4.30, respectively. In data set [1], the IC50 at 72 h was more than 60 µM.

Regarding `COc1cc(/C=C/C(=O)N(CCN(C)C)c2ccccn2)cc(OC)c1OC`, the pIC50 is 4.67 in the data set with MDA-MB-157, 4.81 with MDA-MB-453 and 5.03 in the data set with MDA-MB-231 [3]. For the same compound, in [1], the IC50 at 72 h came out at 45.5 µM. In addition, in the data set on MDA-MB-231 [2], the inhibition at 10 µM was more than 50%.

Turning to `Cc1nc(C)c(/C=C/C(=O)N(CCN(C)C)c2ccccn2)nc1C`, the pIC50 with MDA-MB-157 was 5.01; with MDA-MB-453, 4.67; in the data set with MDA-MB-231 [3], 4.86. Further, in [1], the IC50 at 72 h is more than 60 µM. In addition, the inhibition at 10 µM in the data set on MDA-MB-231 [2] was more than 50%.
